# Experimental data taken from PMC9082781 (ACS infectious diseases, 2021).
# Residues, ends and D or L forms follow the SMILES beside them. *: point of attachment. Myristoyl = CCCCCCCCCCCCCC(=O)*; Lauroyl = CCCCCCCCCCCC(=O)*; Decanoyl = CCCCCCCCCC(=O)*; Octanoyl = CCCCCCCC(=O)*; Hexanoyl = CCCCCC(=O)*
# Tested on: Klebsiella pneumonia ATCC 13883
# Assay type: cell-based, Klebsiella pneumoniae
row,MIC KP [µM],SMILES
1,6.2,CCCCCCCCCCCCCC(=O)N[C@@H](CCCCN)C(=O)N[C@@H](CCCNC(=N)N)C(=O)N[C@H](C(=O)N[C@@H](Cc1c[nH]c2ccccc12)C(=O)N[C@@H](CCC(N)=O)C(=O)N[C@@H](CCCNC(=N)N)C(=O)N[C@H](C(=O)N[C@@H](CCCCN)C(=O)N[C@@H](CC(=O)O)C(=O)N[C@@H](Cc1ccccc1)C(N)=O)[C@@H](C)CC)[C@@H](C)CC [Peptide C14-KR10] (Myristoyl-KRIWQRIKDF-NH2)
2,12.5,CCCCCCCCCCCCCC(=O)N[C@@H](CCCCN)C(=O)N[C@@H](CCCNC(=N)N)C(=O)N[C@H](C(=O)N[C@@H](Cc1c[nH]c2ccccc12)C(N)=O)[C@@H](C)CC [Peptide C14-KR4] (Myristoyl-KRIW-NH2; C-terminus assumed)
3,>50,CCCCCCCCCCCC(=O)N[C@@H](CCCCN)C(=O)N[C@@H](CCCNC(=N)N)C(=O)N[C@H](C(=O)N[C@@H](Cc1c[nH]c2ccccc12)C(N)=O)[C@@H](C)CC [Peptide C12-KR4] (Lauroyl-KRIW-NH2; C-terminus assumed)
4,>50,CCCCCCCCCCCCCC(=O)N[C@@H](CCCCN)C(=O)N[C@@H](CCCNC(=N)N)C(=O)N[C@H](C(=O)N[C@@H](Cc1c[nH]c2ccccc12)C(=O)N[C@@H](CCC(N)=O)C(=O)N[C@@H](CCCNC(=N)N)C(N)=O)[C@@H](C)CC [Peptide C14-KR6] (Myristoyl-KRIWQR-NH2; C-terminus assumed)

# Continued, molecule first:
row,SMILES,MIC KP [µM]
1,CCCCCCCC(=O)N[C@@H](CCCCN)C(=O)N[C@@H](CCCNC(=N)N)C(=O)N[C@H](C(=O)N[C@@H](Cc1c[nH]c2ccccc12)C(=O)N[C@@H](CCC(N)=O)C(=O)N[C@@H](CCCNC(=N)N)C(=O)N[C@H](C(=O)N[C@@H](CCCCN)C(N)=O)[C@@H](C)CC)[C@@H](C)CC [Peptide C8-KR8] (Octanoyl-KRIWQRIK-NH2),>50
2,CCCCCC(=O)N[C@@H](CCCCN)C(=O)N[C@@H](CCCNC(=N)N)C(=O)N[C@H](C(=O)N[C@@H](Cc1c[nH]c2ccccc12)C(N)=O)[C@@H](C)CC [Peptide C6-KR4] (Hexanoyl-KRIW-NH2; C-terminus assumed),>50
3,CCCCCCCC(=O)N[C@@H](CCCCN)C(=O)N[C@@H](CCCNC(=N)N)C(=O)N[C@H](C(=O)N[C@@H](Cc1c[nH]c2ccccc12)C(=O)N[C@@H](CCC(N)=O)C(=O)N[C@@H](CCCNC(=N)N)C(N)=O)[C@@H](C)CC [Peptide C8-KR6] (Octanoyl-KRIWQR-NH2; C-terminus assumed),>50
4,CCCCCCCCCC(=O)N[C@@H](CCCCN)C(=O)N[C@@H](CCCNC(=N)N)C(=O)N[C@H](C(=O)N[C@@H](Cc1c[nH]c2ccccc12)C(=O)N[C@@H](CCC(N)=O)C(=O)N[C@@H](CCCNC(=N)N)C(=O)N[C@H](C(=O)N[C@@H](CCCCN)C(=O)N[C@@H](CC(=O)O)C(=O)N[C@@H](Cc1ccccc1)C(=O)N[C@@H](CC(C)C)C(=O)N[C@@H](CCCNC(=N)N)C(N)=O)[C@@H](C)CC)[C@@H](C)CC [Peptide C10-KR12] (Decanoyl-KRIWQRIKDFLR-NH2),6.2 to 12.5
5,CCCCCC(=O)N[C@@H](CCCCN)C(=O)N[C@@H](CCCNC(=N)N)C(=O)N[C@H](C(=O)N[C@@H](Cc1c[nH]c2ccccc12)C(=O)N[C@@H](CCC(N)=O)C(=O)N[C@@H](CCCNC(=N)N)C(=O)N[C@H](C(=O)N[C@@H](CCCCN)C(=O)N[C@@H](CC(=O)O)C(=O)N[C@@H](Cc1ccccc1)C(=O)N[C@@H](CC(C)C)C(=O)N[C@@H](CCCNC(=N)N)C(N)=O)[C@@H](C)CC)[C@@H](C)CC [Peptide C6-KR12] (Hexanoyl-KRIWQRIKDFLR-NH2),6.2
6,CCCCCCCCCC(=O)N[C@@H](CCCCN)C(=O)N[C@@H](CCCNC(=N)N)C(=O)N[C@H](C(=O)N[C@@H](Cc1c[nH]c2ccccc12)C(N)=O)[C@@H](C)CC [Peptide C10-KR4] (Decanoyl-KRIW-NH2; C-terminus assumed),>50
